Experimental data as given in patent US20030031688A1, “Cosmetic composition with improved skin moisturizing properties” (priority 2001, published 2003).

Assay: Moisture uptake of powder samples in controlled humidity chamber
Type: physicochemical
Details: 65% relative humidity at 25° C.
Method: A mixture of urea and coenzyme Q10 (9:1 Wt./wt.)) was prepared as a dry blend of the raw materials by manually mixing urea (9 parts by weight) and coenzyme Q10 (1 part by weight), with mortar and pestle grinding as necessary, to provide an essentially homogeneous powder. The moisture-absorbing properties were determined based on the amount of moisture uptake over time. For comparison, the moisture-absorbing properties of powder samples of the unblended individual raw materials, i.e., urea alone and coenzyme Q10 alone, were measured.
The samples were placed in a controlled humidity chamber (65% relative humidity at 25° C.) and the mass of each sample was measured at various time points. The water uptake is reflected by the increase in mass over time.
The percentage values shown in Table 1 reflect the percentage increase in mass relative to the weight of the starting sample (prior to being placed in the controlled humidity chamber). The expected percentage values for the blend (“Expected”) were calculated on the basis of the fractional contribution of each component alone, as represented by the following equation: Expected %=(0.9×% measured for urea alone)+(0.1×% measured for Q10 alone).

Question: For `NC(N)=O` [Urea], which “percentage increase in mass relative to the weight of the starting sample (water uptake)” value (time 5) is on record?
Answer: 31.0%

Question: What about the “percentage increase in mass relative to the weight of the starting sample (water uptake)” value (time 10) of the same compound?
Answer: 4.0%

Question: And the “percentage increase in mass relative to the weight of the starting sample (water uptake)” value (time 15)?
Answer: 5.5%

Question: What about the “percentage increase in mass relative to the weight of the starting sample (water uptake)” value (time 30) of the same compound?
Answer: 10.6%

Question: What about the “percentage increase in mass relative to the weight of the starting sample (water uptake)” value (time 45) of the same compound?
Answer: 16.6%

Question: And the “percentage increase in mass relative to the weight of the starting sample (water uptake)” value (time 1 hr)?
Answer: 22.4%

Question: Which “percentage increase in mass relative to the weight of the starting sample (water uptake)” value (time 5) does the source give for `COC1=C(OC)C(=O)C(C/C=C(\C)CC/C=C(\C)CC/C=C(\C)CC/C=C(\C)CC/C=C(\C)CC/C=C(\C)CC/C=C(\C)CC/C=C(\C)CC/C=C(\C)CCC=C(C)C)=C(C)C1=O` [Product Q10, coenzyme Q10] here?
Answer: 1.0%

Question: What about the “percentage increase in mass relative to the weight of the starting sample (water uptake)” value (time 10) of the same compound?
Answer: 0.1%

Question: And the “percentage increase in mass relative to the weight of the starting sample (water uptake)” value (time 15)?
Answer: 0.5%

Question: What about the “percentage increase in mass relative to the weight of the starting sample (water uptake)” value (time 30) of the same compound?
Answer: 1.5%

Question: And the “percentage increase in mass relative to the weight of the starting sample (water uptake)” value (time 45)?
Answer: 2.4%

Question: What about the “percentage increase in mass relative to the weight of the starting sample (water uptake)” value (time 1 hr) of the same compound?
Answer: 3.1%
